Results reported in the NIST ThermoML archive (doi:10.1016/j.jct.2013.04.010).
Values joined by “and” are separate entries in the source; they are usually repeats but may differ in a detail not shown here. Equal entries are not always repeated. ± gives the expanded uncertainty stated by the source.

Conditions: Liquid, Other PVT measurement

CCCCC(CC)COC(=O)c1ccccc1C(=O)OCC(CC)CCCC (stereo not given) [bis(2-ethylhexyl) 1,2-benzenedicarboxylate]
Conditions | mass density
373.29 K, 3800 kPa | 921 ± 6 kg/m3
373.29 K, 7600 kPa | 924 ± 7 kg/m3
373.29 K, 12200 kPa | 928 ± 7 kg/m3
373.29 K, 15900 kPa | 931 ± 7 kg/m3
373.29 K, 18100 kPa | 933 ± 7 kg/m3
373.29 K, 22300 kPa | 936 ± 7 kg/m3
373.29 K, 28300 kPa | 940 ± 7 kg/m3
373.29 K, 34800 kPa | 945 ± 7 kg/m3
373.29 K, 42200 kPa | 950 ± 7 kg/m3
373.29 K, 48900 kPa | 954 ± 7 kg/m3
373.29 K, 56100 kPa | 959 ± 7 kg/m3
373.29 K, 69500 kPa | 967 ± 7 kg/m3
373.29 K, 83700 kPa | 974 ± 7 kg/m3
373.29 K, 104200 kPa | 984 ± 7 kg/m3
373.29 K, 125400 kPa | 994 ± 7 kg/m3
373.29 K, 138900 kPa | 1001 ± 7 kg/m3
373.29 K, 152900 kPa | 1007 ± 7 kg/m3
373.29 K, 174400 kPa | 1015 ± 7 kg/m3
373.29 K, 208300 kPa | 1029 ± 7 kg/m3
373.29 K, 240000 kPa | 1041 ± 7 kg/m3
373.29 K, 262100 kPa | 1046 ± 7 kg/m3
423.53 K, 4200 kPa | 878 ± 6 kg/m3
423.53 K, 7900 kPa | 885 ± 6 kg/m3
423.53 K, 11100 kPa | 890 ± 6 kg/m3
423.53 K, 14500 kPa | 895 ± 6 kg/m3
423.53 K, 18000 kPa | 898 ± 6 kg/m3
423.53 K, 21200 kPa | 901 ± 6 kg/m3
423.53 K, 27800 kPa | 908 ± 6 kg/m3
423.53 K, 35200 kPa | 914 ± 6 kg/m3
423.53 K, 42100 kPa | 918 ± 6 kg/m3
423.53 K, 49200 kPa | 924 ± 7 kg/m3
423.53 K, 55700 kPa | 930 ± 7 kg/m3
423.53 K, 70700 kPa | 939 ± 7 kg/m3
423.53 K, 83700 kPa | 948 ± 7 kg/m3
423.53 K, 104200 kPa | 960 ± 7 kg/m3
423.53 K, 125400 kPa | 970 ± 7 kg/m3
423.53 K, 139900 kPa | 977 ± 7 kg/m3
423.53 K, 153700 kPa | 983 ± 7 kg/m3
423.53 K, 173400 kPa | 992 ± 7 kg/m3
423.53 K, 207100 kPa | 1006 ± 7 kg/m3
423.53 K, 239400 kPa | 1018 ± 7 kg/m3
423.53 K, 263800 kPa | 1028 ± 7 kg/m3
476.2 K, 5500 kPa | 847 ± 6 kg/m3
476.2 K, 9400 kPa | 853 ± 6 kg/m3
476.2 K, 9500 kPa | 853 ± 6 kg/m3
476.2 K, 15200 kPa | 861 ± 6 kg/m3
476.2 K, 15700 kPa | 861 ± 6 kg/m3
476.2 K, 26800 kPa | 874 ± 6 kg/m3
476.2 K, 27300 kPa | 874 ± 6 kg/m3
476.2 K, 27500 kPa | 874 ± 6 kg/m3
476.2 K, 46700 kPa | 894 ± 6 kg/m3
476.2 K, 46900 kPa | 894 ± 6 kg/m3
476.2 K, 59800 kPa | 905 ± 6 kg/m3
476.2 K, 70700 kPa | 914 ± 7 kg/m3
476.2 K, 71500 kPa | 913 ± 7 kg/m3
476.2 K, 95700 kPa | 931 ± 7 kg/m3
476.2 K, 96400 kPa | 931 ± 7 kg/m3
476.2 K, 114200 kPa | 942 ± 7 kg/m3
476.2 K, 114800 kPa | 942 ± 7 kg/m3
476.2 K, 139800 kPa | 959 ± 7 kg/m3
476.2 K, 140400 kPa | 958 ± 7 kg/m3
476.2 K, 176200 kPa | 975 ± 7 kg/m3
476.2 K, 206900 kPa | 990 ± 7 kg/m3
476.2 K, 240200 kPa | 1002 ± 7 kg/m3
476.2 K, 269000 kPa | 1013 ± 7 kg/m3
491.86 K, 3900 kPa | 830 ± 6 kg/m3 and 831 ± 6 kg/m3
491.86 K, 4100 kPa | 830 ± 6 kg/m3
491.86 K, 9900 kPa | 840 ± 6 kg/m3
491.86 K, 10500 kPa | 839 ± 6 kg/m3
491.86 K, 22800 kPa | 856 ± 6 kg/m3
491.86 K, 23300 kPa | 856 ± 6 kg/m3
491.86 K, 37200 kPa | 870 ± 6 kg/m3
491.86 K, 37500 kPa | 870 ± 6 kg/m3
491.86 K, 50700 kPa | 886 ± 6 kg/m3
491.86 K, 51100 kPa | 885 ± 6 kg/m3
491.86 K, 71500 kPa | 902 ± 6 kg/m3
491.86 K, 71900 kPa | 902 ± 6 kg/m3
491.86 K, 94800 kPa | 918 ± 6 kg/m3
491.86 K, 95000 kPa | 918 ± 6 kg/m3
491.86 K, 121700 kPa | 934 ± 7 kg/m3
491.86 K, 121800 kPa | 934 ± 7 kg/m3
491.86 K, 145400 kPa | 948 ± 7 kg/m3
491.86 K, 145600 kPa | 948 ± 7 kg/m3
491.86 K, 177200 kPa | 964 ± 7 kg/m3
491.86 K, 177400 kPa | 964 ± 7 kg/m3
491.86 K, 204300 kPa | 977 ± 7 kg/m3
491.86 K, 206000 kPa | 978 ± 7 kg/m3
491.86 K, 229400 kPa | 989 ± 7 kg/m3
491.86 K, 230800 kPa | 988 ± 7 kg/m3
491.86 K, 253700 kPa | 998 ± 7 kg/m3
491.86 K, 258100 kPa | 1000 ± 7 kg/m3
523.6 K, 5700 kPa | 811 ± 6 kg/m3
523.6 K, 9200 kPa | 817 ± 6 kg/m3
523.6 K, 16100 kPa | 827 ± 6 kg/m3
523.6 K, 21600 kPa | 835 ± 6 kg/m3
523.6 K, 27300 kPa | 842 ± 6 kg/m3
523.6 K, 27500 kPa | 842 ± 6 kg/m3
523.6 K, 35500 kPa | 851 ± 6 kg/m3
523.6 K, 35700 kPa | 851 ± 6 kg/m3
523.6 K, 44200 kPa | 860 ± 6 kg/m3
523.6 K, 44300 kPa | 860 ± 6 kg/m3
523.6 K, 44400 kPa | 860 ± 6 kg/m3
523.6 K, 44600 kPa | 860 ± 6 kg/m3
523.6 K, 55800 kPa | 871 ± 6 kg/m3
523.6 K, 56300 kPa | 871 ± 6 kg/m3
523.6 K, 68500 kPa | 882 ± 6 kg/m3
523.6 K, 68900 kPa | 882 ± 6 kg/m3
523.6 K, 82200 kPa | 893 ± 7 kg/m3
523.6 K, 82500 kPa | 892 ± 7 kg/m3
523.6 K, 97000 kPa | 903 ± 6 kg/m3
523.6 K, 97300 kPa | 903 ± 6 kg/m3
523.6 K, 117000 kPa | 916 ± 6 kg/m3
523.6 K, 117400 kPa | 916 ± 6 kg/m3
523.6 K, 117700 kPa | 916 ± 6 kg/m3
523.6 K, 155700 kPa | 939 ± 7 kg/m3
523.6 K, 156100 kPa | 939 ± 7 kg/m3
523.6 K, 181200 kPa | 952 ± 7 kg/m3
523.6 K, 181500 kPa | 952 ± 7 kg/m3
523.6 K, 209500 kPa | 964 ± 7 kg/m3
523.6 K, 209900 kPa | 964 ± 7 kg/m3
523.6 K, 233900 kPa | 974 ± 7 kg/m3
523.6 K, 234000 kPa | 974 ± 7 kg/m3
523.6 K, 253400 kPa | 983 ± 7 kg/m3
523.6 K, 253600 kPa | 983 ± 7 kg/m3
523.6 K, 263500 kPa | 987 ± 7 kg/m3
